Assay results reported in patent US8304223B2, “Isoforms of pig liver esterase” (Enzymicals AG, priority 2007, dated 2012).
Read-outs that look alike come from different tables or passages of the source. Values belong to the molecule of their own block, whether it stands above or below them.

Tests used:
PLE 1 (γ-PLE) = target: T1, PLE 1 (γ-PLE) (Sus scrofa, UniProt Q29550); test: biochemical; assay type: biochemical, pig; conditions: 25° C.; for Remaining activity in %: inhibitor 1 mM; for remaining activity at 10 µM: inhibitor 0.01 mM
T1 construct: made in house; host or cells: E. coli Origami (DE3) with pGro7 (GroEL/GroES coexpression), crude extract
T1 sequence (Q29550 with tags, fused parts or gaps): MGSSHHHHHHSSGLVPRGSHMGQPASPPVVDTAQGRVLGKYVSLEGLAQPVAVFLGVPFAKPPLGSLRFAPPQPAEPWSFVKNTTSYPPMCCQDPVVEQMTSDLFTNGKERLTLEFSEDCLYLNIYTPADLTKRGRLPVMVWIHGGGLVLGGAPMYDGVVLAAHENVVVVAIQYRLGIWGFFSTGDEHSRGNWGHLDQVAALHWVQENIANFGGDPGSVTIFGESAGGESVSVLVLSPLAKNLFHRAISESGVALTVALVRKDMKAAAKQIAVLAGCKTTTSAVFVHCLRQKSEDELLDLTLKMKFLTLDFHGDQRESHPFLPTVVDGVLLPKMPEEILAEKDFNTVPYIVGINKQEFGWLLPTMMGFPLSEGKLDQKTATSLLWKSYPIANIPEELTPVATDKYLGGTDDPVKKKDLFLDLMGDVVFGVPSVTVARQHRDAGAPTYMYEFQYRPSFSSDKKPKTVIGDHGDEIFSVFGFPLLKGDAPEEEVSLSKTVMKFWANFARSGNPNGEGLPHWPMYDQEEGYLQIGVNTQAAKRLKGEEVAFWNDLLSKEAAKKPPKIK
Method: (§1) Esterase activity was determined spectrophotometrically in sodium phosphate buffer (50 mM) by means of p-nitrophenyl acetate (10 mM, dissolved in dimethyl sulfoxide) as substrate. The amount of p-nitrophenol generated was determined at a wavelength of 410 nm (ε=15*10^3 M^−1 cm^−1) at RT and pH 7.5. 1 unit (U) is defined as the amount of enzyme capable of converting 1 μM p-nitrophenol per minute under analytical conditions (Krebsfänger, N., et. al., (1998) Enzyme Microb. Technol, 22, 641-646).
(§2) The inhibitability of the new PLE variants was determined by treating the crude extracts with any of three esterase inhibitors. […] Samples were taken at certain points in time and the remaining esterase activity was determined by the pNPA assay.

PLE 2 = target: T2, PLE 2 (Sus scrofa, UniProt Q29550, F477A/K481R/L479F); test: biochemical; assay type: biochemical, pig; conditions: 25° C.; for Remaining activity in %: inhibitor 1 mM; for remaining activity at 10 µM: inhibitor 0.01 mM
T2 construct: made in house; host or cells: E. coli Origami (DE3) with pGro7 (GroEL/GroES coexpression), crude extract
T2 sequence (Q29550 19-562 F477A/L479F/K481R): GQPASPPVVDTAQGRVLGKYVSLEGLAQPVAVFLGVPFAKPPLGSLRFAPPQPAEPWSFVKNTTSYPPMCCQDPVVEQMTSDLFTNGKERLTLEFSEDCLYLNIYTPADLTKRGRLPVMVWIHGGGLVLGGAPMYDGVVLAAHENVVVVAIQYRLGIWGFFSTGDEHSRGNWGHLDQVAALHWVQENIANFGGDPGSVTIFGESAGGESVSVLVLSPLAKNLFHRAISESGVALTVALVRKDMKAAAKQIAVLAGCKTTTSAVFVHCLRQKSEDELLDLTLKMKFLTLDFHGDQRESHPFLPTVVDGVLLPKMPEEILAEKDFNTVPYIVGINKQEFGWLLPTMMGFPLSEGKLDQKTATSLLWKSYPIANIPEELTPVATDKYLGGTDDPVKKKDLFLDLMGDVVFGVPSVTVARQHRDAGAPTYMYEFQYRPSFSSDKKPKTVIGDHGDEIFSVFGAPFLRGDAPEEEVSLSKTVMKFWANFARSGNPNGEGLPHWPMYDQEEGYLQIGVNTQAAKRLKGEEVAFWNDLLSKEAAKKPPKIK
Method: as §1, §2

PLE 3 = test: Influence of inhibitors, remaining activity by pNPA assay; assay type: biochemical, pig; conditions: 25° C.
Method: as §1, §2

PLE 4 = test: as above; assay type: biochemical, pig; conditions: 25° C.
Method: as §1, §2

PLE 5 = test: as above; assay type: biochemical, pig; conditions: 25° C.
Method: as §1, §2

[1] = Native PAGE with Fast Red activity staining; assay type: biochemical; conditions: crude extracts, Fast Red staining with α-naphthyl acetate
Method: A mixture containing the crude extract of recombinantly produced PLE (5-15 μL, corresponding to 0.05-0.15 U of pNPA analysis) was mixed with buffer solution (20% (w/v) glycerol; 0.0025% (w/v) bromophenol blue in dH2O) (5-10 μL). Aliquots thereof were separated on a native polyacrylamide gel (7.5%). For activity staining, the gel was incubated in a mixture of freshly prepared α-naphthyl acetate and Fast Red. Formation of a red complex between α-naphthol generated and Fast Red indicated hydrolytic activity of the esterase. (Krebsfänger, N., et. al., (1998) Enzyme Microb. Technol, 22, 641-646). The gel was then stained with Coomassie Brilliant Blue.
Esterase activity was checked by applying the crude extracts to a native gel which was then incubated in Fast Red solution with α-naphthyl acetate as substrate. This was followed by Coomassie staining (FIG. 4: Native PAGE of the crude extracts of PLE2, clone 12, PLE3, PLE4, PLE5, γPLE and the E. coli Origami pGro7 wild type (negative control). Left-hand side: Fast Red staining with α-naphthyl acetate, right-hand side: subsequent Coomassie Brilliant Blue staining).

[2] = Kinetic resolution of the racemates of substrate 2; assay type: biochemical; conditions: calculated according to Chen et al.
Method: (§3) Hydrolysis was carried out in 1.5 ml reaction vessels in a thermomixer (Thermomixer comfort Eppendorf, Hamburg, Germany) at 37° C. 0.5 U esterase crude extract (based on the pNPA assay) were used for 1 ml of substrate solution (10 mM in sodium phosphate buffer pH 7.5, 50 mM). The reaction was stopped by extracting the mixture with dichloromethane, and the organic phase was dried over anhydrous sodium sulfate.
(§4) Enantiomeric purity and conversion were determined by gas chromatography. Enantioselectivity of the variant enzymes was calculated according to Chen et al. (C. S. Chen, Y. Fujimoto, G. Girdaukas, C. J. Sih, J. Am. Chem. Soc. 1982, 104, 7294.).
(§5) For a more detailed description of the synthesis of the substrates and the retention times in GC analysis, see Musidlowska-Persson, A. and Bornscheuer, U. T., “Substrate Specificity of the γ-isoenzyme of recombinant pig liver esterase towards acetates of secondary alcohols” J. Mol. Catal. B. Enzym. 2002, 19-20, 129-133.

[3] = Kinetic resolution of the racemates of substrate 1; assay type: biochemical; conditions: calculated according to Chen et al.
Method: as §3, §4, §5

[4] = Kinetic resolution of the racemates of substrate 3; assay type: biochemical; conditions: calculated according to Chen et al.
Method: as §3, §4, §5

[5] = pH stat activity with achiral ester tributyrin; assay type: biochemical; conditions: purified enzyme, pH stat at 37° C. and pH 7.5, 10 min
Method: (§6) Esterase substrate specificity was analyzed at constant pH. A known amount of esterase was added to an emulsion (20 mL) containing an ester substrate (5% (v/v); tributyrin, ethyl acetate, triolein or methyl butyrate) and gum arabic (2% (w/v)) at 37° C. The acid liberated was counter titrated automatically in a pH statiometer (Schott, Mainz, Germany) with 0.01 N NaOH in order to maintain a constant pH of 7.5. 1 unit (U) is defined as the amount of enzyme capable of generating 1 μM acid per minute under analytical conditions.

[6] = substrate 4; literature data (*); cited from earlier work
[7] = pH stat activity with achiral ester ethyl acetate; assay type: biochemical; conditions: purified enzyme, pH stat at 37° C. and pH 7.5, 10 min
Method: as §6

[8] = pH stat activity with achiral ester ethyl caprylate; assay type: biochemical; conditions: purified enzyme, pH stat at 37° C. and pH 7.5, 10 min
Method: Esterase substrate specificity was analyzed at constant pH. […] The acid liberated was counter titrated automatically in a pH statiometer (Schott, Mainz, Germany) with 0.01 N NaOH in order to maintain a constant pH of 7.5. 1 unit (U) is defined as the amount of enzyme capable of generating 1 μM acid per minute under analytical conditions.

[9] = pH stat activity with achiral ester methyl butyrate; assay type: biochemical; conditions: purified enzyme, pH stat at 37° C. and pH 7.5, 10 min
Method: as §6

[10] = pNPA assay of esterase activity (crude extracts); assay type: biochemical; conditions: crude extract, N-terminal His6 tag
Method: The chaperones were coexpressed with the PLE isoenzymes in 150 ml of LB medium containing 20 μg mL^−1 chloramphenicol and 50 μg mL^−1 ampicillin for plasmid selection. Chaperone expression was immediately initiated by adding 1 mg mL^−1 L-arabinose. PLE production was induced at OD600=0.5 by adding 40 μM IPTG. The cells were removed by centrifugation after 24 h, resuspended in 10 ml of sodium phosphate buffer (50 mM, pH 7.5) and disrupted using ultrasound. Cell debris was removed by centrifugation, and the supernatant was used for further experiments (crude cell extract). Protein content and esterase activity were determined according to Bradford or using the pNPA assay.
as §1

[11] = pH stat activity with achiral ester triolein; assay type: biochemical; conditions: purified enzyme, pH stat at 37° C. and pH 7.5, 10 min
Method: as §6

Molecule: [F-].[Na+] [NaF, sodium fluoride]
Remaining activity in % (PLE 1 (γ-PLE); 5 min): 20% | Remaining activity in % (PLE 1 (γ-PLE); 30 min): 21% | Remaining activity in % (PLE 2; 5 min): 17% | Remaining activity in % (PLE 2; 30 min): 15% | Remaining activity in % (PLE 3; inhibitor 1 mM, 5 min): 44% | Remaining activity in % (PLE 3; inhibitor 1 mM, 30 min): 46% | Remaining activity in % (PLE 4; inhibitor 1 mM, 5 min): 64% | Remaining activity in % (PLE 4; inhibitor 1 mM, 30 min): 66% | Remaining activity in % (PLE 5; inhibitor 1 mM, 5 min): 83% | Remaining activity in % (PLE 5; inhibitor 1 mM, 30 min): 88%

Molecule: O=S(=O)(F)Cc1ccccc1 [Phenylmethylsulfonyl fluoride (PMSF), phenylmethylsulfonyl fluoride]
Remaining activity in % (PLE 3; inhibitor 0.01 mM, 1 min): 77% | Remaining activity in % (PLE 3; inhibitor 0.01 mM, 5 min): 51% | Remaining activity in % (PLE 3; inhibitor 0.01 mM, 30 min): 7% | Remaining activity in % (PLE 3; inhibitor 0.01 mM, 60 min): 5% | Remaining activity in % (PLE 4; inhibitor 0.01 mM, 1 min): 78% | Remaining activity in % (PLE 4; inhibitor 0.01 mM, 5 min): 56% | Remaining activity in % (PLE 4; inhibitor 0.01 mM, 30 min): 7% | Remaining activity in % (PLE 4; inhibitor 0.01 mM, 60 min): 2% | Remaining activity in % (PLE 5; inhibitor 0.01 mM, 1 min): 88% | Remaining activity in % (PLE 5; inhibitor 0.01 mM, 5 min): 76% | Remaining activity in % (PLE 5; inhibitor 0.01 mM, 30 min): 24% | Remaining activity in % (PLE 5; inhibitor 0.01 mM, 60 min): 3%

Molecule: CNC(=O)Oc1ccc2c(c1)[C@]1(C)CCN(C)[C@@H]1N2C [Physostigmine, physostigmine]
remaining activity at 10 µM (PLE 1 (γ-PLE); 1 min): 41% | remaining activity at 10 µM (PLE 1 (γ-PLE); 5 min): 12% | remaining activity at 10 µM (PLE 1 (γ-PLE); 30 min): 7% | remaining activity at 10 µM (PLE 2; 1 min): 61% | remaining activity at 10 µM (PLE 2; 5 min): 25% | remaining activity at 10 µM (PLE 2; 30 min): 6%

Volume activity [10]: 11 U/ml
B1: PLE 1: previously disclosed γ-isoenzyme of pig liver esterase (Seq. ID No. 2), recombinant from E. coli Origami with GroEL/ES (protein)
chain: MGSSHHHHHHSSGLVPRGSHMGQPASPPVVDTAQGRVLGKYVSLEGLAQPVAVFLGVPFAKPPLGSLRFAPPQPAEPWSFVKNTTSYPPMCCQDPVVEQMTSDLFTNGKERLTLEFSEDCLYLNIYTPADLTKRGRLPVMVWIHGGGLVLGGAPMYDGVVLAAHENVVVVAIQYRLGIWGFFSTGDEHSRGNWGHLDQVAALHWVQENIANFGGDPGSVTIFGESAGGESVSVLVLSPLAKNLFHRAISESGVALTVALVRKDMKAAAKQIAVLAGCKTTTSAVFVHCLRQKSEDELLDLTLKMKFLTLDFHGDQRESHPFLPTVVDGVLLPKMPEEILAEKDFNTVPYIVGINKQEFGWLLPTMMGFPLSEGKLDQKTATSLLWKSYPIANIPEELTPVATDKYLGGTDDPVKKKDLFLDLMGDVVFGVPSVTVARQHRDAGAPTYMYEFQYRPSFSSDKKPKTVIGDHGDEIFSVFGFPLLKGDAPEEEVSLSKTVMKFWANFARSGNPNGEGLPHWPMYDQEEGYLQIGVNTQAAKRLKGEEVAFWNDLLSKEAAKKPPKIK
modifications: Pig liver
Esterase activity (active bands) in native gel [1]: Active esterase bands are visible | E (enantioselectivity) [2]: 17 | E (enantioselectivity) [3]: 4 | E (enantioselectivity) [4]: 72 | Specific activity, Tributyrin [5]: 306 | E (enantioselectivity) [6]: 17 | Specific activity, Ethyl acetate [7]: 38 | Specific activity, Ethyl caprylate [8]: 63 | Specific activity, Methyl butyrate [9]: 57 | Specific activity, Triolein [11]: 0
